According to patent publication US20150265682A1, “THERAPEUTIC METHODS AND COMPOSITIONS FOR TREATING DIABETES” (Orient Europharma Co., Ltd., priority 2014, published 2015):

What was measured:
[1] = system: normal mice, mice with type 1 DM, mice with type 2 DM; assay: Plasma glucose after single intraperitoneal borapetoside A (acute study); type: in vivo, ICR mice; conditions: 60 min; for dose giving significant decrease of plasma glucose level: single i.p.
Description: The 4-week-old male ICR mice were purchased from the Animal Center of the College of Medicine, National Taiwan University (Taipei, Taiwan) with delicate humane care. This animal study was conducted by following the University ethical guidelines and the ‘Guide for the Care and Use of Laboratory Animals’ published by the US National Institutes of Health (NIH publication no. 85-23, revised 1996). The animal experiments were approved by the Institutional Animal Care and Use Committee (IACUC) of the National Taiwan University (IACUC No. 20110073). Animals were housed in a room at the constant temperature, 22±1° C., with 12 hours light and dark cycles.
After three days of acclimatization, the mice had free access to a standard rodent chow (normal mice), a standard rodent chow after single 250 mgkg^−1 streptozotocin (STZ) intraperitoneal injection (T1DM mice), and a fat-rich chow diet and fructose-sweetened water (T2DM mice) for 4 weeks. The induction of Type 1 DM was assessed and confirmed when the mice had plasma glucose levels ≧350 mgdL^−1, accompanied with polyuria, hyperphagia and decreased body weight. The induction Type 2 DM in the mice was assessed by measuring fasting plasma glucose levels and confirmed when plasma glucose level was ≧150 mgdL^−1 after the 4-week induction. The animals were assigned randomly into three groups, with seven animals in each group. In group I, the mice were treated with vehicle, 2% DMSO in normal saline, as the negative control. In group II, the mice were intraperitoneally treated with borapetoside A (0.1-10 mgkg^−1). […]
Blood samples were collected from the orbital vascular plexus of the mice under anesthesia. […] The plasma glucose concentration was measured by Glucose Kit Reagent (Biosystems S. A., Barcelona, Spain) following the manufacturer's instructions, and the insulin levels were estimated using mouse insulin ELISA kit (Mercodia AB, Uppsala, Sweden).

[2] = system: human hepatocellular carcinoma cell line, Hep3B; assay: Glycogen content assay in Hep3B cells; type: cell-based; conditions: 30 minutes
Description: The C2C12 skeletal muscle cells were cultured in Dulbecco's modified Eagle's medium (DMEM; Gibco/Invitrogen, Carlsbad, Calif.), and the human hepatocellular carcinoma cell line, Hep3B, was cultured in Roswell Park Memorial Institute medium 1640 (RPMI 1640 medium; Gibco/Invitrogen, Carlsbad, Calif.). Cells were cultured at 37° C. in the humidified incubator supplied with 5% CO2. Culture mediums were supplemented with 4.5 mgmL^−1 glucose, penicillin 100 IUmL^−1, streptomycin 100 μgmL^−1 and 10% fetal bovine serum (Gibco/Invitrogen, Carlsbad, Calif.). Only C2C12 cells were then switched to 2% horse serum for 3 days after reaching the 70% confluence. Myotubes formation was achieved after 4 days of incubation, and the cells were used for subsequent experiments. Culture mediums were replaced by serum free DMEM or RPMI for 24 h before experiments (see e.g., procedure described in Sultan et al., 2006).
C2C12 and Hep3B cells were treated with 1 nM insulin, 100 μM metformin, and the assigned concentration of borapetoside A for 30 minutes. To develop the insulin resistance state of cells, C2C12 cells were incubated with IL-6 at 20 ngmL^−1 for 1 hour. Later, the cells were treated with 1 nM insulin, 100 μM metformin, and the assigned concentration of borapetoside A for 30 minutes. After the assigned treatment, cells were washed twice with phosphate buffered saline (PBS). Glycogen content was measured as previously described, with some modifications (see e.g., Savage et al., 2008). The protein concentrations of the cell lysates were determined by using Pierce BCA Protein Assay Kit (Thermo-Scientific, Rockford, Ill.). The glycogen content of each sample was normalized by total protein.

[3] = system: non-diabetic and T2DM mice; assay: Oral glucose tolerance test (OGTT) with borapetoside C; type: in vivo, ICR mice; conditions: 5 mg/kg
Description: This study was conducted following the University ethical guidelines on animal experimentation and complied with the Guide for the Care and Use of Laboratory Animals published by the US National Institutes of Health (NIH publication no. 85-23, revised 1996). The animal facility was well controlled for temperature (22±1° C.), and humidity (60±5%) and a 12 h/12 h light-dark cycle was maintained with access to food and water ad libitum. Four-week-old male ICR mice were acquired from BioLasco Taiwan Co., Ltd. and maintained at College of Medicine Experimental Animal Center, National Taiwan University. The study was conducted on 8-10 week-old male ICR mice.
T1DM mice were induced by a known method. In brief, an intraperitoneal injection of streptozotocin (STZ; Sigma Chemical Co.; St. Louis, Mo.) at 150 mg/kg was performed in mice that were fasted for 48 h. The induction of T1DM was assessed and confirmed when the mice had plasma glucose levels ≧350 mg/dL, accompanied with polyuria, hyperphagia and decreased body weight. The control mice group received an injection of vehicle and then carried out for 4 weeks. T2DM mice were induced by maintaining on a fat-rich chow diet and fructose-sweetened water for 4 weeks from the age of 4-5 weeks according to previous methods. The induction T2DM mice were assessed by measuring fasting plasma glucose levels and confirmed when plasma glucose level was ≧150 mg/dL after a 4-week induction.
Blood samples were collected from the orbital vascular plexus of mice under anesthesia with sodium pentobarbital (80 mg/kg, intraperitoneal, Sigma Chemical Co., St. Louis, Mo., USA). Blood samples were then centrifuged at 13000 rpm for 5 min, and the plasma was kept on ice prior to the assay. The plasma glucose concentration was measured using commercial kits following manufacturer's instructions (BioSystems S. A., Barcelona, Spain).
To perform OGTT, mice were fasted overnight, divided into 2 groups and then administered a vehicle control and 5 mg/kg borapetoside C. This was followed by administration of a glucose solution at 2 g/kg via tube feeding. Blood samples were withdrawn from the orbital vascular plexus at intervals of 30, 60, 120, and 150 min after glucose administration. For the ITT, mice were fasted for 3 h. Human insulin (Insulin Actrapid) HM; Novo Nordisk, Denmark) was injected intraperitoneally after an intraperitoneal administration of 0.1 mg/kg borapetoside C for 30 min. Blood samples were collected from the orbital vascular plexus at the timed intervals mentioned above.

SMILES | dose giving significant decrease of plasma glucose level ([1]; mice with type 2 DM) | dose giving significant decrease of plasma glucose level ([1]; normal mice) | plasma glucose level ([1]; normal, type 1 DM and type 2 DM mice, 0.1-10.0 mgkg^−1 single i.p.) | fold increase of glycogen content ([2]; 10^−5 mol/L) | fold increase of glycogen content ([2]; 10^−6 mol/L) | fold increase of glycogen content ([2]; 10^−7 mol/L) | basal plasma glucose concentration in OGTT ([3]; T2DM mice) | decrease of area under the curve (AUC) in OGTT vs vehicle-treated group ([3]; T2DM mice) | plasma glucose levels at 60, 120 and 150 min vs vehicle-treated mice ([3]; T2DM mice) | plasma glucose concentration sixty min after oral glucose administration ([3]; T2DM mice, glucose 2 g/kg) | basal plasma glucose concentration in OGTT ([3]; non-diabetic mice) | plasma glucose levels at 120 min and 150 min vs vehicle-treated mice ([3]; non-diabetic mice) | plasma glucose concentration at 60 min after oral administration of glucose ([3]; non-diabetic mice, glucose 2 g/kg) | decrease of area under the curve (AUC) in OGTT vs vehicle-treated group ([3]; normal mice)
C[C@@]12C[C@@H](c3ccoc3)OC(=O)[C@@H]1C[C@@H]1OC(=O)[C@@]3(O)[C@@H](O[C@@H]4O[C@H](CO)[C@@H](O)[C@H](O)[C@H]4O)CC[C@@H]2[C@@]13C [Borapetoside A, borapetoside A] | higher than 0.3 mgkg^−1 | ≥ 1 mgkg^−1 | lowered the plasma glucose level | 1.54±0.11 fold | 1.39±0.12 fold | 1.46±0.05 fold |  |  |  |  |  |  |  | 
COC(=O)C1=CCC[C@H]2[C@]3(C)C[C@@H](c4ccoc4)OC(=O)[C@@H]3C[C@@H](O[C@@H]3O[C@H](CO)[C@@H](O)[C@H](O)[C@H]3O)[C@@]12C [Borapetoside C, borapetoside C] |  |  |  |  |  |  | 206.8 ± 19.0 mg/dL | 16% | significantly lower | 338.2 ± 24.5 mg/dL | 115 ± 3.5 mg/dL | significantly lower | 312.8 ± 21.3 mg/dL | 22%
